System: not listed separately
Test: Kinematic viscosity of lactone compatibilizers
Type: physicochemical
Conditions: at 40° C.

Row | Compound | kinematic viscosity [centistokes]
1 | CCCCCC[C@@H]1C[C@H](C)OC1=O (relative stereo) [cis-3-hexyl-5-methyl-dihydro-furan-2-one] | 4.5

System: New Zealand White rabbits
Test: Acute skin irritation/corrosive potential, scored on the Draize scale
Type: in vivo
Conditions: 0.5 mL undiluted, approximately 4 hours exposure, semi-occlusive, evaluated up to 72 hours
Protocol: Compositions of the present invention were evaluated for acute skin irritation/corrosive potential in New Zealand White rabbits. An aliquot of 0.5 mL of undiluted compatibilizer was administered to a localized site on the backs of the animals. The test sites were covered with a semi-oclusive dressing to ensure contact between the skin and the test substance. The animals were exposed to the test substances for approximately 4 hours. The test sites were evaluated for erythrema, edema, and other evidence of dermal effects for up to 72 hours following the removal of the test substance. Observed dermal effects were scored according to the Draize scale. The reversibility of dermal effects was assessed for up to 14 days, as necessary.

Row | Compound | Classification | Observations (dermal effects)
2 | CC1CCC(=O)N1C1CCCCC1 (stereo not drawn) [5-methyl-n-cyclohexyl pyrrolidin-2-one] | Corrosive | Necrosis
3 | CCCCCCCCN1CCCC1=O [N-octylpyrrolidin-2-one, reference compound] | Severe irritant | –
4 | CCCCCCCCC(=O)N(C)C [N,N-Dimethylnonanamide] | Severe irritant | –
5 | CCCCCCC1CC(C)OC1=O (stereo not drawn) [3-hexyl-5-methyl-gammabutyrolactone] | Not a skin irritant | No irritation
6 | 5-methyl-n-octyl-pyrrolidin-2-one | Corrosive | Necrosis

System: not listed separately
Test: Phase separation temperature of compatibilizer / Zerol 150 alkylbenzene oil / R134a mixtures (cloud point on cooling)
Type: physicochemical
Conditions: near 25.0 wt % Zerol 150 : 25.0 wt % compatibilizer : 50.0 wt % R134a, cooled in one degree intervals
Protocol: The phase separation temperatures for lactone compatibilizers of the present invention when combined with Zerol® 150 alkylbenzene oil were determined. […] The glass tube was sealed at one end, and the other end was sealed to a Teflon® vacuum valve stopcock. This entire apparatus was tared, and was attached at valve E to a high vacuum line capable of achieving 10^−4 to 10^−5 torr (See FIG. 1). The pressure was measured by a mercury manometer, F. All five valves, A, B, C, D and E were attached to the manifold via greased ground-glass joints. Valve A joined the manifold to the source of refrigerant. Valve B joined a flask comprising fluorocarbon refrigerant, once loaded into the manifold. Valve C joined a 125.5 mL calibrated vessel to the manifold. And valve D joined a 5 mm OD in leg glass tube 150 mm in length containing oil and compatibilizer.
The glass tube, refrigerant container, and calibrated volume were evacuated by opening valve B, C, D, and E, and keeping valve A closed. After vacuum was achieved, Valve D and E were closed. An atmosphere of refrigerant was introduced into the vacuum line by opening Valve A. After closing valve A, the refrigerant was condensed into the refrigerant container by cooling with a liquid nitrogen bath. Valve E was opened to remove any residual air. Valve E was closed, and the refrigerant container was allowed to warm until the desired pressure was reached as indicated on the mercury manometer whereupon Valve C was closed trapping a known amount of refrigerant in the calibrated volume. The excess refrigerant was condensed back into the refrigerant container by cooling with a liquid nitrogen bath, Valve B was closed, and Valve E was opened to remove all residual gases. The glass tube was cooled in a liquid nitrogen bath, and the refrigerant was transferred from the calibrated volume to the glass tube by closing Valve E, and opening Valves C and D. Valve D was then sealed after all the refrigerant had transferred into the glass tube. The glass tube apparatus was removed from the vacuum line, and the tube was allowed to warm while maintaining the tube behind appropriate protective shielding for safety purposes throughout the rest of the procedure owing to the positive pressure in the glass tube. After removal of grease from the ground glass joint, the previously tared glass tube apparatus was weighed to ensure the appropriate mass of refrigerant had been added to the tube. In a typical experiment, the composition in the tube was near 50.0 wt % R134a, 25.0 wt % Zerol® 150 and 25.0 wt % of compatibilizer.
The phase separation temperature of the mixture was determined by manually shaking the contents of the glass tube while cooling the mixture by one degree Centigrade intervals until a cloudpoint/phase separation was visually observed. Results are shown in Table II in comparison with an amide compatibilizer, N-octyl-pyrrolidin-2-one.

Row | Compound | Phase Separation Temperature
7 | CC(CC=C1C[C@@H](C)OC1=O)CC(C)(C)C (stereo partly drawn) [(E,Z)-3-(3,5,5-trimethylhexylidene)-5-methyl-dihydrofuran-2-one] | 3 deg C
8 | CCCCCCC=C1CC(C)OC1=O (stereo not drawn) [(E,Z)-3-Heptylidene-5-methyl-dihydro-furan-2-one] | −6 deg C
9 | CCCCCCC[C@@H]1C[C@H](C)OC1=O (relative stereo) [cis-3-heptyl-5-methyl-dihydro-furan-2-one] | phase gelled and/or precipitated at −11 deg C
10 | CCCCCC1CCCC(=O)O1 (stereo not drawn) [delta-decalactone] | −10 deg C
11 | CCCCCCC1CCCC(=O)O1 (stereo not drawn) [delta-undecalactone] | −12 deg C
12 | CCCCC=C1CC(C)OC1=O (stereo not drawn) [(E,Z)-3-pentylidene-5-methyl-dihydro-furan-2-one] | 0 deg C
13 | CCCCC1CCC(=O)O1 (stereo not drawn) [gamma-octalactone] | 10 deg C
14 | CCCCCC1CCC(=O)O1 (stereo not drawn) [gamma-nonalactone] | −2 deg C
15 | CCC=C1CC(C)OC1=O (stereo not drawn) [(E,Z)-3-propylidene-5-methyl-dihydro-furan-2-one] | 12 deg C
16 | CC[C@@H]1C[C@H](C)OC1=O (relative stereo) [cis-3-ethyl-5-methyl-dihydro-furan-2-one] | >25 deg C
17 | CCCCCCCC=C1CC(C)OC1=O (stereo not drawn) [(E,Z)-3-octylidene-5-methyl-dihydro-furan-2-one] | −8 deg C
18 | CCCCCCC1CCC(=O)O1 (stereo not drawn) [gamma-decalactone] | −3 deg C
19 | CCCCCCCCN1CCCC1=O [N-octylpyrrolidin-2-one, reference compound] | −4 deg C
20 | CCCCCCCCC1CCC(=O)O1 (stereo not drawn) [gamma-dodecalactone] | −6 deg C
21 | CCCCCC[C@]1(C)CCC(=O)O1 (stereo in doubt) [5-methyl-5-hexyl-dihydro-furan-2-one] | −2 deg C
22 | CCCC=C1CC(C)OC1=O (stereo not drawn) [(E,Z)-3-butylidene-5-methyl-dihydro-furan-2-one] | 9 deg C
23 | CCCCCCCC1CCCC(=O)O1 (stereo not drawn) [delta-dodecalactone] | −13 deg C

Row | Compound | Phase Separation Temperature
24 | CCC1CCC(=O)O1 (stereo not drawn) [gamma-caprolactone, reference compound] | Immiscible with Zerol ®150
25 | (E,Z)-3-decylidene-5-methyl-dihydro-furan-2-one | 13 deg C
26 | CCCCCC[C@@H]1C[C@H](C)OC1=O (relative stereo) [cis-3-hexyl-5-methyl-dihydro-furan-2-one] | −9 deg C
27 | CCCCCCCC1CCOC1=O (stereo not drawn) [3-heptyldihydro-furan-2-one] | 0 deg C
28 | CCCCC[C@@H]1C[C@H](C)OC1=O [cis-(3-pentyl-5-methyl)-dihydro-furan-2-one] | −1 deg C
29 | CC=C1CC(C)OC1=O (stereo not drawn) [(E,Z)-3-ethylidene-5-methyl-dihydro-furan-2-one] | 24 deg C
30 | CCCCCCCC[C@]1(C)CCC(=O)O1 (stereo in doubt) [5-methyl-5-octyl-dihydro-furan-2-one] | −4 deg C
31 | CCCCOC(=O)c1ccccc1C(=O)OCCCC [dibutyl phthalate, reference compound] | 18 deg C
32 | CC1C/C(=C/C2CCCCC2)C(=O)O1 (stereo not drawn) [(E,Z)-3-cyclohexylmethylidene-5-methyl-dihydrofuran-2-one] | −2 deg C
33 | CCCCCCCCC=C1CC(C)OC1=O (stereo not drawn) [(E,Z)-3-nonylidene-5-methyl-dihydro-furan-2-one] | 4 deg C
34 | CC(CC[C@@H]1C[C@H](C)OC1=O)CC(C)(C)C (relative stereo) [cis-3-(3,5,5-trimethylhexyl)-5-methyl-dihydro-furan-2-one] | 2 deg C
35 | CCCCCC=C1CC(C)OC1=O (stereo not drawn) [(E,Z)-3-Hexylidene-5-methyl-dihydro-furan-2-one] | −7 deg C
36 | CCCCCCC1CCOC1=O (stereo not drawn) [3-hexyldihydro-furan-2-one] | 5 deg C
37 | O=C1OC[C@H]2CCCC[C@@H]12 (stereo in doubt) [Hexahydro-isobenzofuran-1-one] | 4 deg C
38 | CCC[C@@H]1C[C@H](C)OC1=O [cis-(3-propyl-5-methyl)-dihydro-furan-2-one] | 14 deg C
39 | CCCC[C@@H]1C[C@H](C)OC1=O [cis-(3-butyl-5-methyl)-dihydro-furan-2-one] | 10 deg C
